Paper PMC7806712, “A novel bifunctional aldehyde/alcohol dehydrogenase catalyzing reduction of acetyl-CoA to ethanol at temperatures up to 95 °C” (Scientific Reports, 2021)

How the values were obtained:
Aldh (CTN_1548) = target: T1, Aldh (CTN_1548) (Thermotoga neapolitana, UniProt B9K9U1); test: spectrophotometric NAD(P)H formation, […] nm; format: biochemical; settings: 20 mM acetaldehyde, 1 mM NAD(P)+, no CoASH, 85 °C, various pH
T1 construct: full-length from genomic DNA, vector-encoded N-terminal residues, C-terminal His-tag kept; E. coli JM109, pHsh; heat treatment, Ni column
T1 sequence (B9K9U1 2-472): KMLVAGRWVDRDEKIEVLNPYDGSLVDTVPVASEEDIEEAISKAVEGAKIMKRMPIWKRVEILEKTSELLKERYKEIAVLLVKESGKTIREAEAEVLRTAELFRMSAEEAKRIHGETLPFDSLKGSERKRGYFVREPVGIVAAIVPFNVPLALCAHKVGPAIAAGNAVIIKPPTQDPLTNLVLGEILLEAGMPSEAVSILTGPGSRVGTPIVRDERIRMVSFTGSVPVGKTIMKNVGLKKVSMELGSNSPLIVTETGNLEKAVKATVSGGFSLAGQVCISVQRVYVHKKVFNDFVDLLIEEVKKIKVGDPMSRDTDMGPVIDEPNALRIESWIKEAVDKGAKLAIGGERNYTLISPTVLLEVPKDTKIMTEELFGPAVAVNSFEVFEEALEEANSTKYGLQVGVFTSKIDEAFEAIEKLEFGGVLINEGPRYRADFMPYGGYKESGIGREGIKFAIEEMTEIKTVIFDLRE

purified protein = substrate: CC(=O)SCCNC(=O)CCNC(=O)[C@H](O)C(C)(C)COP(=O)(O)OP(=O)(O)OC[C@H]1O[C@@H](n2cnc3c(N)ncnc32)[C@H](O)[C@@H]1OP(=O)(O)O; test: purified protein; format: biochemical, Thermotoga neapolitana; settings: 0.25 mM NADPH, pH 6.5, 80 °C, reduction to acetaldehyde

NC(=O)c1ccc[n+]([C@@H]2O[C@H](COP(=O)(O)OP(=O)(O)OC[C@H]3O[C@@H](n4cnc5c(N)ncnc54)[C@H](O)[C@@H]3O)[C@@H](O)[C@H]2O)c1 [NAD^+]
spectrophotometric NAD(P)H formation, 340 nm (Aldh (CTN_1548)): catalyzed the oxidation of aldehydes to acetic acid using either NAD^+ or NADP^+ as coenzyme

CC=O [ac-ald]
spectrophotometric NAD(P)H formation, 340 nm (Aldh (CTN_1548)): exhibited only CoA-independent activity that oxidizes ac-ald to acetic acid

B1: Fe-AAdh (CTN_0580) (Thermotoga neapolitana DSM 4359) (protein)
chain: FKISCYLPTEIIFRVGAVDELEERAKKLGKKALIVTGRSSTKKTGLLQRVQDLLKKAGVESIVFDKIVPNPISDHVDEAAEIVRKEKIDFIVGLGGGSPIDSAKAISITAPNEGKFWDYVPVGGGKIPEKSIPVVAIPTTHGTGTEADPFAVITNPETKEKVGIGYRNTFPVLSLVDPEVMKTLPKDQTAYTSMDAFYHAIEAFLNVNANPYSDVLALDAMKRIVTYLPVAYENGEDMEARTNLAWASTEAGITETLTGVIANHALEHGLSGFYPEITHGLGLCITGPYLFEYIFDHAYERLAIVGREVFGVYETDDRKAGKLAIKKLRDFQEMFGLNKRLSELGVKEEDIPKMAETGYRILNGVVVVTPGNLTAKDMEEIFRRCY
notes: full-length from genomic DNA, start Met omitted in primer (vector-encoded N-terminal residues), C-terminal His-tag kept; E. coli JM109, pHsh; heat treatment, Ni column, anaerobic
Km (purified protein): 1750 µM
